Test systems include MDA-N; MDA-MB-231 breast; A498 renal; BT-549 breast; SNB-75 CNS; COLO 205 colon; HCT-116 colon.
Holding throughout (experiment): DTP human tumour cell line panel, 48 h

Our source for the TGI values is PubChem BioAssay (NCI).

Usually TGI stands for the concentration giving total growth inhibition. Low readings indicate more potent growth arrest, high ones less potent growth arrest.

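In this assay, cells in 96-well plates receive the compound at five concentrations for 48 hours. Endpoints are linearly interpolated between the surrounding concentrations. Definition used: TGI = concentration required for complete inhibition of growth.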

`COC(=O)C1=C([C@H]2COC(C)(C)O2)[C@H]2C[C@@H]1[C@@H]1OC(C)(C)O[C@@H]12`: the TGI in the assay with MDA-N, in the assay on MDA-MB-231 breast, with A498 renal, in the assay with BT-549 breast, in the assay on SNB-75 CNS and in the assay on COLO 205 colon was greater than 100 µM in each case. Also, the TGI with HCT-116 colon is greater than 100 µM.
As for `CC1(C)C(=O)N(O)C(C)(C)N1N=O`, the TGI in the assay with MDA-MB-231 breast, in the assay on BT-549 breast, with COLO 205 colon and in the assay on HCT-116 colon was greater than 10 µM in each case.
`Cc1cc(C)c(S(=O)(=O)N(CCCCCCN)OCCCN)c(C)c1`: the TGI with MDA-N came out at 32.2 µM; in the assay with MDA-MB-231 breast it was 24.4 µM; with BT-549 breast, 33.3 µM; in the assay with SNB-75 CNS it was 22.8 µM; in the assay on COLO 205 colon, 32.3 µM; with HCT-116 colon, 31.7 µM.
Regarding `CN(C(=O)[C@@H](NC(=O)OC(C)(C)C)c1ccccc1)[C@H]1CCCC[C@@H]1N1CCCC1`, the TGI with MDA-MB-231 breast, in the assay on A498 renal, in the assay on BT-549 breast, with COLO 205 colon and with HCT-116 colon was greater than 100 µM throughout.
Consider `COc1cc(C2=C(C)[C@@H]3CN(CC=C3c3ccc(Cl)cc3)C2)c(S(=O)(=O)O)cc1OC`, for which the TGI with MDA-N, with MDA-MB-231 breast, in the assay with BT-549 breast, with SNB-75 CNS, in the assay with COLO 205 colon and with HCT-116 colon was greater than 100 µM in each case.
Regarding `Brc1cccc(Nc2ncnc3sc4c(c23)CCC(Nc2cccc(Br)c2)C4)c1` (configuration not stated), the TGI in the assay with MDA-N, in the assay on MDA-MB-231 breast, in the assay on BT-549 breast, with SNB-75 CNS, in the assay with COLO 205 colon and in the assay with HCT-116 colon was greater than 100 µM in each case.
As for `CCN(CC)CCOc1ccc(N2Cc3ccccc3C2=O)cc1`, the TGI in the assay with MDA-N, with MDA-MB-231 breast, with A498 renal, in the assay with BT-549 breast, in the assay on SNB-75 CNS and in the assay with COLO 205 colon was greater than 10 µM in each case. This compound also came in with a TGI in the assay on HCT-116 colon greater than 10 µM.
For the compound `COC1/C=C\OC2(C)Oc3c(C)c(O)c4c(O)c(c(/C=N\OCCCc5ccccc5)c(O)c4c3C2=O)NC(=O)/C(C)=C\C=C/C(C)C(O)C(C)C(O)C(C)C(OC(C)=O)C1C` (configuration not stated), the TGI turned out to be 13 µM in the assay with MDA-N; 7.97 µM in the assay on MDA-MB-231 breast; 20.5 µM in the assay on A498 renal; 8.86 µM in the assay with SNB-75 CNS; 4.12 µM in the assay on COLO 205 colon; 5.26 µM in the assay with HCT-116 colon.
`Cc1ccc(/C=N/Nc2cc(C)c3ccccc3n2)s1`: the total growth inhibition concentration (TGI) with MDA-N is 37.6 µM; in the assay on MDA-MB-231 breast, 19.9 µM; with BT-549 breast, 42 µM; in the assay with SNB-75 CNS, greater than 100 µM; in the assay with COLO 205 colon it was greater than 100 µM; in the assay on HCT-116 colon, greater than 100 µM.
As to `COC(=O)/C=C\[C@@H]1[C@H](C)N1S(=O)(=O)c1ccc(C)cc1` (some centres not stated), the TGI in the assay on MDA-N, with MDA-MB-231 breast, in the assay with A498 renal, in the assay with BT-549 breast, in the assay on COLO 205 colon and in the assay on HCT-116 colon was greater than 100 µM each time.
As to `N#C/C(=C\c1ccc(F)cc1)c1nc2ccccc2c(=O)[nH]1`, the TGI in the assay on MDA-N is greater than 100 µM; with MDA-MB-231 breast, greater than 100 µM; in the assay with BT-549 breast it was greater than 100 µM; with SNB-75 CNS it was 74.5 µM; in the assay on COLO 205 colon it was greater than 100 µM; in the assay with HCT-116 colon, greater than 100 µM.
As to `CCN(CC)CCSc1n[nH]c(-c2c[nH]c3nc(C)ccc3c2=O)n1`, the total growth inhibition concentration (TGI) in the assay on MDA-N, with MDA-MB-231 breast, in the assay with A498 renal, in the assay with BT-549 breast, with COLO 205 colon and in the assay with HCT-116 colon was greater than 100 µM throughout.
As for `CCc1cccc(CC)c1Nc1nc2c(s1)C(=O)c1ccccc1C2=O`, the TGI is 32.3 µM with MDA-N; 41.4 µM in the assay with MDA-MB-231 breast; 25.4 µM with SNB-75 CNS; 49.6 µM with COLO 205 colon; 31.4 µM with HCT-116 colon.
As to `CN(C)Cc1cc(C(=O)/C=C/c2ccc(Br)cc2)cc(CN(C)C)c1O`, the TGI in the assay on MDA-N amounted to 9.81 µM; with MDA-MB-231 breast, 12.1 µM; in the assay on A498 renal it was 30.4 µM; in the assay on SNB-75 CNS it was 35.3 µM; in the assay with COLO 205 colon it was 3.28 µM; with HCT-116 colon, 19.9 µM.
`COc1cc(/C=C/C=C2\CCC/C(=C\C=C\c3ccc(O)c(OC)c3)C2=O)ccc1O`: the TGI in the assay with MDA-N was greater than 100 µM; with MDA-MB-231 breast it was greater than 100 µM; in the assay with BT-549 breast, 60.5 µM; in the assay with SNB-75 CNS it was greater than 100 µM; in the assay on COLO 205 colon it was 71.5 µM; in the assay on HCT-116 colon, 49 µM.
On to `CCOC(=O)CCSS(=O)(=O)C(F)(F)F`, for which the total growth inhibition concentration (TGI) in the assay on MDA-N, in the assay with A498 renal, in the assay on BT-549 breast, with SNB-75 CNS, in the assay with COLO 205 colon and in the assay on HCT-116 colon was greater than 100 µM in each case.
For `CC(=O)/C=C(/C=N/O)c1ccccc1`, the TGI in the assay with MDA-N, in the assay on MDA-MB-231 breast, in the assay on BT-549 breast, in the assay with SNB-75 CNS, in the assay on COLO 205 colon and in the assay with HCT-116 colon was greater than 100 µM in each case.
As to `CS(=O)(=O)N1CC(CCl)c2ccc(NCCN)cc21` (configuration not stated), the total growth inhibition concentration (TGI) in the assay with MDA-N was greater than 100 µM; with MDA-MB-231 breast, greater than 100 µM; with A498 renal, greater than 100 µM; in the assay with SNB-75 CNS, 40.1 µM; in the assay with COLO 205 colon, greater than 100 µM; in the assay on HCT-116 colon, greater than 100 µM.
In the case of `CCCCCCCC/C=C\CCCCCCCC(=O)OC[C@]1(CO)CCC(=O)O1`, the TGI in the assay with MDA-MB-231 breast, with A498 renal, with BT-549 breast, in the assay with SNB-75 CNS, in the assay with COLO 205 colon and in the assay with HCT-116 colon was greater than 100 µM each time.
Take `CC(NC1=NCCO1)c1cccs1` (configuration not stated): the TGI was greater than 100 µM with MDA-MB-231 breast; greater than 100 µM in the assay on A498 renal; greater than 100 µM in the assay on SNB-75 CNS; 35.9 µM in the assay on COLO 205 colon; 38.6 µM with HCT-116 colon.
